# Results reported in ChEMBL document CHEMBL5584243, “Discovery of JNJ-74856665: A Novel Isoquinolinone DHODH Inhibitor for the Treatment of AML” (J Med Chem, 2024).
# Tested on: MOLM-13
# Assay: Antiproliferative activity against human MOLM-13 cells assessed as inhibition of cell growth incubated for 72 hrs by CellTiter-Glo assay
# Format: functional, cell-based
# Conditions: MOLM-13, 72 h; call rule not given here
row,SMILES,IC50 [nM]
1,CCn1c(CO)nn(-c2cc3c(C(C)C)cn(-c4ccccc4C(F)(F)F)c(=O)c3cc2F)c1=O,0.63
2,CCn1c(CO)nn(-c2cc3c(C4(C)CC4)cn(-c4c(F)cccc4Cl)c(=O)c3cc2F)c1=O,3.1
3,CCn1c(CO)nn(-c2cc3c(C(C)C)cn(-c4c(C)cnc(OC)c4Cl)c(=O)c3cc2F)c1=O,2.4
4,CCc1ccccc1-n1cc(C(C)C)c2cc(-n3nc(CO)n(CC)c3=O)c(F)cc2c1=O,1.8
5,CCn1c(CO)nn(-c2cc3c(C(C)C)cn(-c4ccccc4C(F)F)c(=O)c3cc2F)c1=O,0.56
6,CCn1c(CO)nn(-c2cc3c(C(C)C)cn(-c4ccccc4Cl)c(=O)c3cc2F)c1=O,0.28
7,CCn1c(CO)nn(-c2cc3c([C@H](C)C(F)(F)F)cn(-c4ccccc4C)c(=O)c3cc2F)c1=O,0.59
8,CCn1c(CO)nn(-c2cc3c(C(C)C)cn(-c4ccccc4OC)c(=O)c3cc2F)c1=O,1
9,C=C(C)c1cn(-c2c(F)cccc2Cl)c(=O)c2cc(F)c(-n3nc(CO)n(CC)c3=O)nc12,1.1

# Tested on: not listed separately
# Assay: Passive permeability across apical to basolateral side in dog MDCK-MDR1 cells
# Format: ADME, cell-based, Canis lupus familiaris
# Conditions: not given
row,SMILES,Papp A→B [×10⁻⁶ cm/s]
1,CCn1c(CO)nn(-c2cc3c(C(C)C)cn(-c4ccccc4C(F)(F)F)c(=O)c3cc2F)c1=O,40.4
2,CCn1c(CO)nn(-c2cc3c(C(C)C)cn(-c4c(C)cnc(OC)c4Cl)c(=O)c3cc2F)c1=O,42.6
3,CCc1ccccc1-n1cc(C(C)C)c2cc(-n3nc(CO)n(CC)c3=O)c(F)cc2c1=O,37.3
4,CCn1c(CO)nn(-c2cc3c(C(C)C)cn(-c4ccccc4C(F)F)c(=O)c3cc2F)c1=O,39
5,CCn1c(CO)nn(-c2cc3c(C(C)C)cn(-c4ccccc4Cl)c(=O)c3cc2F)c1=O,50.7
6,CCn1c(CO)nn(-c2cc3c([C@H](C)C(F)(F)F)cn(-c4ccccc4C)c(=O)c3cc2F)c1=O,20.3
7,CCn1c(CO)nn(-c2cc3c(C(C)C)cn(-c4ccccc4OC)c(=O)c3cc2F)c1=O,25.1

# Tested on: not listed separately
# Assay: Metabolic stability in human liver microsomes assessed as half life incubated upto 60 mins in presence of NADPH by LC-MS/MS analysis
# Format: ADME, Microsome
# Conditions: not given
row,SMILES,half-life [h]
1,CCn1c(CO)nn(-c2cc3c(C(C)C)cn(-c4ccccc4C(F)(F)F)c(=O)c3cc2F)c1=O,> 3
2,CCn1c(CO)nn(-c2cc3c(C(C)C)cn(-c4c(C)cnc(OC)c4Cl)c(=O)c3cc2F)c1=O,> 3
3,CCc1ccccc1-n1cc(C(C)C)c2cc(-n3nc(CO)n(CC)c3=O)c(F)cc2c1=O,> 3
4,CCn1c(CO)nn(-c2cc3c(C(C)C)cn(-c4ccccc4C(F)F)c(=O)c3cc2F)c1=O,2.98
5,CCn1c(CO)nn(-c2cc3c(C(C)C)cn(-c4ccccc4Cl)c(=O)c3cc2F)c1=O,> 3
6,CCn1c(CO)nn(-c2cc3c([C@H](C)C(F)(F)F)cn(-c4ccccc4C)c(=O)c3cc2F)c1=O,> 3
7,CCn1c(CO)nn(-c2cc3c(C(C)C)cn(-c4ccccc4OC)c(=O)c3cc2F)c1=O,> 3

# Tested on: not listed separately
# Assay: Metabolic stability in mouse liver microsomes assessed as half life incubated upto 60 mins in presence of NADPH by LC-MS/MS analysis
# Format: ADME, Microsome
# Conditions: not given
row,SMILES,half-life [h]
1,CCn1c(CO)nn(-c2cc3c(C(C)C)cn(-c4ccccc4C(F)(F)F)c(=O)c3cc2F)c1=O,> 3
2,CCn1c(CO)nn(-c2cc3c(C(C)C)cn(-c4c(C)cnc(OC)c4Cl)c(=O)c3cc2F)c1=O,> 3
3,CCc1ccccc1-n1cc(C(C)C)c2cc(-n3nc(CO)n(CC)c3=O)c(F)cc2c1=O,1.83
4,CCn1c(CO)nn(-c2cc3c(C(C)C)cn(-c4ccccc4C(F)F)c(=O)c3cc2F)c1=O,> 3
5,CCn1c(CO)nn(-c2cc3c(C(C)C)cn(-c4ccccc4Cl)c(=O)c3cc2F)c1=O,> 3
6,CCn1c(CO)nn(-c2cc3c([C@H](C)C(F)(F)F)cn(-c4ccccc4C)c(=O)c3cc2F)c1=O,> 3
7,CCn1c(CO)nn(-c2cc3c(C(C)C)cn(-c4ccccc4OC)c(=O)c3cc2F)c1=O,> 3

# Tested on: not listed separately
# Assay: Equilibrium solubility of compound in PBS at pH 2 incubated for 2 to 5 days by HPLC analysis
# Format: physicochemical
# Conditions: PBS, time 2-5 day
row,SMILES,solubility thermodynamic [µM]
1,CCn1c(CO)nn(-c2cc3c(C(C)C)cn(-c4c(C)cnc(OC)c4Cl)c(=O)c3cc2F)c1=O,78
2,CCc1ccccc1-n1cc(C(C)C)c2cc(-n3nc(CO)n(CC)c3=O)c(F)cc2c1=O,193
3,CCn1c(CO)nn(-c2cc3c(C(C)C)cn(-c4ccccc4C(F)F)c(=O)c3cc2F)c1=O,228
4,CCn1c(CO)nn(-c2cc3c(C(C)C)cn(-c4ccccc4Cl)c(=O)c3cc2F)c1=O,153
5,CCn1c(CO)nn(-c2cc3c([C@H](C)C(F)(F)F)cn(-c4ccccc4C)c(=O)c3cc2F)c1=O,164
6,CCn1c(CO)nn(-c2cc3c(C(C)C)cn(-c4ccccc4OC)c(=O)c3cc2F)c1=O,19

# Same assay, conditions: buffer, time 2-5 day
row,SMILES,solubility
1,CCn1c(CO)nn(-c2cc3c(C(C)C)cn(-c4ccccc4C(F)(F)F)c(=O)c3cc2F)c1=O,Not Active

# Tested on: not listed separately
# Assay: Equilibrium solubility of compound in PBS at pH 7 incubated for 2 to 5 days by HPLC analysis
# Format: physicochemical
# Conditions: time 2-5 day
row,SMILES,solubility thermodynamic [µM]
1,CCn1c(CO)nn(-c2cc3c(C(C)C)cn(-c4ccccc4C(F)(F)F)c(=O)c3cc2F)c1=O,39
2,CCn1c(CO)nn(-c2cc3c(C(C)C)cn(-c4c(C)cnc(OC)c4Cl)c(=O)c3cc2F)c1=O,21
3,CCc1ccccc1-n1cc(C(C)C)c2cc(-n3nc(CO)n(CC)c3=O)c(F)cc2c1=O,157
4,CCn1c(CO)nn(-c2cc3c(C(C)C)cn(-c4ccccc4C(F)F)c(=O)c3cc2F)c1=O,11
5,CCn1c(CO)nn(-c2cc3c(C(C)C)cn(-c4ccccc4Cl)c(=O)c3cc2F)c1=O,155
6,CCn1c(CO)nn(-c2cc3c([C@H](C)C(F)(F)F)cn(-c4ccccc4C)c(=O)c3cc2F)c1=O,180
7,CCn1c(CO)nn(-c2cc3c(C(C)C)cn(-c4ccccc4OC)c(=O)c3cc2F)c1=O,20

# Tested on: not listed separately
# Assay: Plasma protein binding in human at 1 uM incubated for 6.5 hrs by LC-MS/MS analysis
# Format: ADME, cell-free
# Conditions: read-out: PPB (converted)
row,SMILES,"fraction unbound at 6.5 h, 1 µM"
1,CCn1c(CO)nn(-c2cc3c(C(C)C)cn(-c4ccccc4C(F)(F)F)c(=O)c3cc2F)c1=O,0.063
2,CCn1c(CO)nn(-c2cc3c(C(C)C)cn(-c4c(C)cnc(OC)c4Cl)c(=O)c3cc2F)c1=O,0.059

# Tested on: not listed separately
# Assay: Plasma protein binding in C57BL mouse at 1 uM incubated for 6.5 hrs by LC-MS/MS analysis
# Format: ADME, cell-free
# Conditions: read-out: PPB (converted)
row,SMILES,"fraction unbound at 6.5 h, 1 µM"
1,CCn1c(CO)nn(-c2cc3c(C(C)C)cn(-c4ccccc4C(F)(F)F)c(=O)c3cc2F)c1=O,0.067
2,CCn1c(CO)nn(-c2cc3c(C(C)C)cn(-c4c(C)cnc(OC)c4Cl)c(=O)c3cc2F)c1=O,0.038

# Tested on: not listed separately
# Assay: Volume of distribution at steady state in C57BL mouse at 2 mg/kg,iv measured upto 24 hrs by LC-MS/MS analysis
# Format: ADME, organism-based
# Conditions: in vivo, read-out: Vdss
row,SMILES,Vd [L/kg]
1,CCn1c(CO)nn(-c2cc3c(C(C)C)cn(-c4ccccc4C(F)(F)F)c(=O)c3cc2F)c1=O,1.2
2,CCn1c(CO)nn(-c2cc3c(C(C)C)cn(-c4c(C)cnc(OC)c4Cl)c(=O)c3cc2F)c1=O,2.1

# Tested on: not listed separately
# Assay: Half life in C57BL mouse at 2 mg/kg,iv measured upto 24 hrs by LC-MS/MS analysis
# Format: ADME, organism-based
# Conditions: in vivo
row,SMILES,half-life [h]
1,CCn1c(CO)nn(-c2cc3c(C(C)C)cn(-c4ccccc4C(F)(F)F)c(=O)c3cc2F)c1=O,4.3
2,CCn1c(CO)nn(-c2cc3c(C(C)C)cn(-c4c(C)cnc(OC)c4Cl)c(=O)c3cc2F)c1=O,7

# Tested on: not listed separately
# Assay: Cmax in C57BL mouse at […] measured upto 24 hrs by LC-MS/MS analysis
# Format: ADME, organism-based
# Conditions: in vivo
row,SMILES,Cmax [ng/mL]
1,CCn1c(CO)nn(-c2cc3c(C(C)C)cn(-c4ccccc4C(F)(F)F)c(=O)c3cc2F)c1=O,5700
2,CCn1c(CO)nn(-c2cc3c(C(C)C)cn(-c4c(C)cnc(OC)c4Cl)c(=O)c3cc2F)c1=O,4100

# Tested on: not listed separately
# Assay: Tmax in C57BL mouse at […] measured upto 24 hrs by LC-MS/MS analysis
# Format: ADME, organism-based
# Conditions: in vivo
row,SMILES,Tmax [h]
1,CCn1c(CO)nn(-c2cc3c(C(C)C)cn(-c4ccccc4C(F)(F)F)c(=O)c3cc2F)c1=O,1.3
2,CCn1c(CO)nn(-c2cc3c(C(C)C)cn(-c4c(C)cnc(OC)c4Cl)c(=O)c3cc2F)c1=O,1.5

# Tested on: not listed separately
# Assay: AUC (0 to infinity) in C57BL mouse at 2 mg/kg,iv measured upto 24 hrs by LC-MS/MS analysis
# Format: ADME, organism-based
# Conditions: in vivo
row,SMILES,AUC [ng·h/mL]
1,CCn1c(CO)nn(-c2cc3c(C(C)C)cn(-c4ccccc4C(F)(F)F)c(=O)c3cc2F)c1=O,71100
2,CCn1c(CO)nn(-c2cc3c(C(C)C)cn(-c4c(C)cnc(OC)c4Cl)c(=O)c3cc2F)c1=O,82500

# Tested on: not listed separately
# Assay: Oral bioavailability in C57BL mouse at 10 mg/kg measured upto 24 hrs by LC-MS/MS analysis
# Format: ADME, organism-based
# Conditions: in vivo
row,SMILES,bioavailability [%]
1,CCn1c(CO)nn(-c2cc3c(C(C)C)cn(-c4ccccc4C(F)(F)F)c(=O)c3cc2F)c1=O,127
2,CCn1c(CO)nn(-c2cc3c(C(C)C)cn(-c4c(C)cnc(OC)c4Cl)c(=O)c3cc2F)c1=O,109

# Tested on: not listed separately
# Assay: Equilibrium solubility of compound in SGF at pH 1 using amorphous form of sample incubated for 2 to 5 days by HPLC analysis
# Format: ADME
# Conditions: time 2-5 day
row,SMILES,solubility thermodynamic [µg/mL]
1,CCn1c(CO)nn(-c2cc3c(C(C)C)cn(-c4ccccc4C(F)(F)F)c(=O)c3cc2F)c1=O,17
2,CCn1c(CO)nn(-c2cc3c(C(C)C)cn(-c4c(C)cnc(OC)c4Cl)c(=O)c3cc2F)c1=O,< 5

# Tested on: not listed separately
# Assay: Equilibrium solubility of compound in FaSSIF at pH 6.5 using amorphous form of sample incubated for 2 to 5 days by HPLC analysis
# Format: ADME
# Conditions: time 2-5 day
row,SMILES,solubility thermodynamic [µg/mL]
1,CCn1c(CO)nn(-c2cc3c(C(C)C)cn(-c4ccccc4C(F)(F)F)c(=O)c3cc2F)c1=O,97
2,CCn1c(CO)nn(-c2cc3c(C(C)C)cn(-c4c(C)cnc(OC)c4Cl)c(=O)c3cc2F)c1=O,16

# Biological target: T1, Aryl hydrocarbon receptor (Homo sapiens, UniProt P35869)
# T1 sequence (P35869 whole entry): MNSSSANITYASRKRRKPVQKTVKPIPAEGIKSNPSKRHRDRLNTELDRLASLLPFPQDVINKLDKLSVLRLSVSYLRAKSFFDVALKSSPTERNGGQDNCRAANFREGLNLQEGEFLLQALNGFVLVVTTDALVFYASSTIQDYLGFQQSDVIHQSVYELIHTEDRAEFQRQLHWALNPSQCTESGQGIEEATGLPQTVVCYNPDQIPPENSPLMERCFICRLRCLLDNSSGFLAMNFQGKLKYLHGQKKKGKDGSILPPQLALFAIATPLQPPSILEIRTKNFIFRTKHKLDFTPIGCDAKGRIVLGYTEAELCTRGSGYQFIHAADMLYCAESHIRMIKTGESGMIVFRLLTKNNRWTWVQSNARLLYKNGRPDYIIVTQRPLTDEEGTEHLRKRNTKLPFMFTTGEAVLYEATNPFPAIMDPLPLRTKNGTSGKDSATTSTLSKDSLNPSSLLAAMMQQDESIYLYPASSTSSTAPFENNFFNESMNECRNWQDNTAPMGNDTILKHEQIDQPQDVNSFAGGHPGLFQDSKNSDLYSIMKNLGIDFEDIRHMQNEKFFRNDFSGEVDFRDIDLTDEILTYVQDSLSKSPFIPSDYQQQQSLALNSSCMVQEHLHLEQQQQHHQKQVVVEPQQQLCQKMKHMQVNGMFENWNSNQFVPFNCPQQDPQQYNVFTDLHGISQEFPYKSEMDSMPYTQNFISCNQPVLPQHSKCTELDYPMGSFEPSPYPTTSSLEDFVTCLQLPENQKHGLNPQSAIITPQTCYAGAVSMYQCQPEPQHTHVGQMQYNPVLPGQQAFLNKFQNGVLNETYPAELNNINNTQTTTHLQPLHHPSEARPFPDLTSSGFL
# Assay: Activation of AhR (unknown origin) at 1 to 10 uM
# Conditions: dose 1-10 µM
row,SMILES,Activity
1,Cc1oncc1C(=O)Nc1ccc(C(F)(F)F)cc1 [LEFLUNOMIDE],Active
